According to patent US4203990A, “Anti-diarrheal 2-substituted quinuclidines” (G. D. Searle & Co., priority 1979, dated 1980):

Assays:
[1] = system: gastrointestinal propulsive motility; test: Mouse Cecal Test (charcoal in cecum, inhibition of gastrointestinal propulsive motility); type: in vivo, male Charles River mice; details: oral/IG, test compound 30 min before charcoal, cecum examined 3.5 h after charcoal, logistic method of Berkson
Description: The present compounds are potent anti-diarrheal agents as evidenced by their ability to inhibit gastrointestinal propulsive motility as set forth in the following tests:
The method used for this assay is a modification of the techniques previously described by Macht and Barba-Gose, J. Amer. Pharm. Ass., 20, 558 (1931), and Janssen and Jageneau, J. Pharm. Pharmacol., 9, 381 (1957). Details are as follows:
A group of six, male Charles River mice weighing 20-25 g. which have been previously fasted for 24 hours are pretreated with the test compounds administered orally as a solution in water or suspended in 0.5% methyl cellulose. A constant volume of 10 ml./kg. is employed. Thirty minutes following administration of the test compounds, the animals are given a single oral dose of charcoal which consists of 0.2 ml. per mouse of 10% charcoal suspended in 1.0% methyl cellulose. Three and a half hours after charcoal administration, the animals are sacrificed and the cecum examined for the absence or presence of charcoal on an all-or-none basis.
The median effective dose (ED50) is then calculated for each compound using the logistic method of Berkson (1953).

[2] = system: castor oil-induced diarrhea; test: Castor Oil-Induced Diarrhea in the Rat; type: in vivo, Charles River male rats; details: po, intragastric, 1 h before castor oil (1.0 ml per rat), at 2 hours past castor oil, method of Berkson
Procedure: Adult Charles River male rats are fasted in community cages for 24 hours prior to the test, with free access to water. The test compound is then administered intragastrically (suspended on 0.5% methyl cellulose) one hour prior to the intragastric administration of a dose of 1.0 ml. castor oil per rat. The rats are then observed for the presence or absence of diarrhea at hourly intervals for up to 8 hours past the castor oil administration. Using the method of Berkson (1953), the median effective dose (ED50) values are calculated at each hourly interval for the test compound.
The median effective dose at 2 hours past the castor oil administration for the following representative compound of the present invention in the castor oil-induced diarrhea in the Rat test is: […]

In the case of `Cl.c1ccc(C(CC2CC3CCN2CC3)(c2ccccc2)c2ccccc2)cc1` (stereo not shown) [2-(2,2,2-triphenylethyl)-1-azabicyclo[2.2.2] octane hydrochloride], the ED50 [1] is reported as 0.9 ± 0.2 mg/kg and the ED50 [2] is reported as 0.2 ± 0.05 mg/kg.

`Cl.c1ccc(C(CC2CC3CCN2CC3)(c2ccccc2)c2ccccn2)cc1` (stereo not shown) [2-[2,2-diphenyl-2-(2-pyridyl)ethyl]-1-azabicyclo[2.2.2]octane hydrochloride] showed an ED50 [1] of 18.1 ± 10.3 mg/kg.

`Cc1nnc(C(CC2CC3CCN2CC3)(c2ccccc2)c2ccccc2)o1.Cl` (stereo not shown) [2-[2-(5-methyl-1,3,4-oxadiazol-2-yl)-2,2-diphenylethyl]-1-azabicyclo[2.2.2]octane hydrochloride] showed an ED50 [1] of 4.4 ± 1.3 mg/kg.
